Test results as given in US12691124B2, “Methods of controlling and improving brain health” (ICAHN SCHOOL OF MEDICINE AT MOUNT SINAI, priority 2019, dated 2026).

Legend:
[1] = system: primary cortical neurons; test: Neuronal longevity in primary cortical neuron culture (LDH, propidium iodide, cleaved caspase 3); type: cell-based, mouse
Source text: Primary Cortical Neuron Culture. Embryonic day 18 (E18) timed-pregnant female mice were anesthetized with CO2 and sacrificed by cervical dislocation. In a dissection hood, 24-26 embryos per experiment were collected through an incision of the mother's abdomen, taken out of the amniotic sacs and decapitated in ice cold Hank's Balanced Salt Solution (HBSS). Using fine scissors and forceps, brains were rapidly dissected and the cortex cleared from meninges and isolated under a dissection microscope. Cortices were collected in ice cold HBSS and kept on ice until all embryos had been dissected. In a tissue culture hood, HBSS was removed and the cortex tissue digested by 0.25% Trypsin-EDTA for 12 minutes at 37° C., followed by DNase1 treatment for 10 minutes at 37° C. The tissue was dissociated by serial trituration with a 25 ml serological pipette, followed by trituration with 10 ml and 5 ml serological pipettes. Cell suspension was washed once with DMEM medium, supplemented with 10% FBS and 1% penicillin/streptomycin and passed through a […] cell strainer before counted on a hemocytometer. Single cells were seeded on poly-D-lysine (0.1 mg ml-1) coated wells at a density of 1×10^6 cells per well on a 12-well plate. Cells were grown in Neurobasal medium, complemented with B27 supplement, N2 supplement, and 0.5 mM L-glutamine and maintained at 37° C. in 5% CO2 for 1 week. Cultures were treated with DMSO (0.2%), I-BET858 (1 μM, 0.2% DMSO), BDNF (50 ng/ml), or BDNF+I-BET858 for 2 and 12 h on day 7 in vitro. Cultures were washed with phosphate-buffered saline (PBS) on ice and processed for RNA isolation using TRIzol/Chloroform extraction.
LDH Assay. LDH activity was measured using the Pierce LDH Cytotoxicity Assay Kit. Culture media was incubated with an equal volume of LDH master mix and incubated for 30 minutes at room temperature in the dark. After, the same volume of stop reagent was added and the absorbance was measured at 490 and 680 nm. Maximum LDH measurements were obtained by adding lysis buffer to release the total amount of LDH in the sample. LDH release is calculated as a percent of the maximum.
Propidium Iodide Assay. Propidium iodide (1 mg/ml, Life Technologies #P3566) was added to each culture well at a final concentration of 0.5 μg/ml. Cultures were incubated for 30 minutes at 37 degrees then washed with PBS. Cells were then fixed with 4% paraformaldehyde in PBS for 15 minutes at room temperature. After fixation, cells were washed with PBS and then mounted using mounting media containing DAPI.
In order to understand the effect of chronic BET inhibition on neuronal survival, primary cortical mouse neurons were cultured in the presence or absence of the brain permeable BET inhibitor IBET858 (1 μM). To quantify cell death over time, the levels of lactate dehydrogenase (LDH) were measured in culture media which is presumably released during cell death as the membranes become permeable. […] The observed decrease in LDH activity after BET inhibition occurs in a dose-dependent manner. LDH activity, which is an indirect measure of cell death, may be affected by other factors such as changes in metabolism or expression of the LDH genes. Therefore in order to confirm these findings, propidium iodide (PI) staining was used to directly quantify the number of dead neurons over time. This membrane impermeable dye increases in fluorescence 20-30 fold after intercalating DNA265. […] To give context to the magnitude of this effect on survival, this experiment was repeated with a direct comparison to the mTOR inhibitor, rapamycin (20 nM).

[2] = system: primary cortical neurons; test: Aβ1-43 oligomer induced neuronal death; type: cell-based, mouse; conditions: Aβ1-43 oligomers, 1 week pretreatment
Source text: While glutamate toxicity is a widely used and clinically relevant assay, there are other factors that contribute to neuronal death in vivo such as lack of oxygen which occurs after stroke or protein aggregates which are observed in many neurodegenerative disorders. To understand if the observed protective effect is specific to glutamate toxicity, neurons were exposed to either hypoxic (1% O2) environments or Aβ1-43 oligomers (FIGS. 10E and 10F).
IBET treatment protects neurons from neurotoxin-induced cell death (FIGS. 22C-22E). Dot plots show the percentage of cells that are propidium iodide negative after different neurotoxic insults when pre-treated with either control or iBET for 1 week. 6 hours and 24 hours after 1 mM glutamate exposure are shown in FIG. 22C; 18 hours, 24 hours, and 48 hours of hypoxia (1% O2) are shown in FIG. 22D; and 48 hours and 72 hours of Aβ1-43 oligomer exposure (10 μM) are shown in FIG. 22E. Two-way repeated measures ANOVA with multiple comparisons, n=3 per group, ***p<0.001. Experiments were repeated a minimum of three times.

SMILES: CC(=O)N1c2ccc(-c3ccc(CN4CCCCC4)cc3)cc2[C@H](Nc2ccccc2)CC1C (stereo in doubt) [IBET858]
- dose dependence of decrease in LDH activity [1]: dose-dependent
- neuron survival over time, propidium iodide assay ([1]; 1 μM): survive significantly longer than control
- number of cells positive for cleaved caspase 3 ([1]; 1 μM): decreased
- LDH activity in culture media over time ([1]; 1 μM, from day 16 in vitro): significantly less LDH activity
- neuronal lifespan, IBET858 compared with rapamycin ([1]; IBET858 1 μM, rapamycin 20 nM): to the same extent as rapamycin if not more
- loss of neurons due to toxic Aβ oligomers [2]: significantly prevents loss of neurons
